Laboratory results: US20240409585A1, “MACROCYCLIC IMMUNOMODULATORS” (priority 2021, published 2024)
Bridge positions count the residues as written; N and C are the ends. Square brackets hold non-standard residues; d marks the D form. Peptide text beside a SMILES is read from it. * marks the point of attachment. ξ: configuration not given here. Phe(4-CONH2) = NC(=O)c1ccc(C[C@H](N)C(=O)O)cc1; Phe(4-COOH) = N[C@@H](Cc1ccc(C(=O)O)cc1)C(=O)O; Trp(7-Me) = Cc1cccc2c(C[C@H](N)C(=O)O)c[nH]c12; Phe(4-CH2NH2) = NCc1ccc(C[C@H](N)C(=O)O)cc1; Bip = N[C@@H](Cc1ccc(-c2ccccc2)cc1)C(=O)O; Phe(3-CN) = N#Cc1cccc(C[C@H](N)C(=O)O)c1; Phe(3-Me) = Cc1cccc(C[C@H](N)C(=O)O)c1; 3Pal = N[C@@H](Cc1cccnc1)C(=O)O; 4Pal = N[C@@H](Cc1ccncc1)C(=O)O; Cha = N[C@@H](CC1CCCCC1)C(=O)O; Cit = NC(=O)NCCC[C@H](N)C(=O)O; Ile(3ξ) = CCC(C)[C@H](N)C(=O)O; Thr(3ξ) = CC(O)[C@H](N)C(=O)O; Dap(Me) = CNC[C@H](N)C(=O)O; dDab = NCC[C@@H](N)C(=O)O; hSer = N[C@@H](CCO)C(=O)O; Carboxymethyl = O=C(O)C*; NMeA = CN[C@@H](C)C(=O)O; Dab = NCC[C@H](N)C(=O)O; Dap = NC[C@H](N)C(=O)O

Each compound was assayed against T1, PE-labeled human PD-L1-Ig binding to Jurkat cell line over-expressing human PD-1 (Jurkat-PD-1) (Homo sapiens, UniProt Q15116) (assay: Jurkat-PD-1 Cell Binding High-Content Screening Assay (CBA): Method 1). Conditions: Jurkat HPDL1 PD1 IC50 (uM) (Method 1), Jurkat-hPD-1 cells, PE-labeled PD-L1-Ig 20 nM final.
T1 construct: expressed in transfected cells; host or cells: Jurkat
T1 sequence (Q15116 25-288): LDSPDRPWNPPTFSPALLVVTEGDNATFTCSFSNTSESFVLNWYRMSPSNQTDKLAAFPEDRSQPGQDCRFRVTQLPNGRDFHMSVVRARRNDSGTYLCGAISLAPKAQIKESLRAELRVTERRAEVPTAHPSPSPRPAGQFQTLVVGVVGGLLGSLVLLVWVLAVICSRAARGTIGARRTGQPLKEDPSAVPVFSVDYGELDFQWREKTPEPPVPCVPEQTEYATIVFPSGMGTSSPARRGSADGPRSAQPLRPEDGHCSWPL

With `CC(C)C[C@@H]1NC(=O)[C@H](CCN)NC(=O)[C@@H](CC(C)C)NC(=O)[C@H](C)N(C)C(=O)[C@H](CCCNC(=N)N)NC(=O)[C@H](Cc2ccc(-c3ccccc3)cc2)NC(=O)[C@H](C(C)C)NC(=O)[C@H](Cc2c[nH]c3ccccc23)NC(=O)[C@H](CC(=O)O)NC(=O)[C@H](Cc2ccc(O)cc2)NC(=O)[C@H](Cc2cccnc2)NC(=O)CSC[C@@H](C(=O)N[C@@H](C)C(N)=O)NC(=O)[C@H](CO)NC(=O)[C@H](C(C)C)NC1=O` [Compound 1034] ({CH2CO}-[3Pal]YDWV[Bip]R[NMeA][dL][Dab]LVSCA-NH2; thioether N-14) as the compound, how does the IC50 read?
Its IC50 is 0.05 µM.

Same assay, conditions: Jurkat-hPD-1 cells, PE-labeled PD-L1-Ig 20 nM final; read-out: Jurkat HPDL1 PD1 IC50 (uM) (Method 1)

With `CC(C)C[C@@H]1NC(=O)[C@H](CCCNC(=N)N)NC(=O)[C@@H](CC(C)C)NC(=O)[C@H](C)N(C)C(=O)[C@H](CCC(=O)O)NC(=O)[C@H](Cc2ccc(-c3ccccc3)cc2)NC(=O)[C@H](C(C)C)NC(=O)[C@H](Cc2c[nH]c3ccccc23)NC(=O)[C@H](CC(=O)O)NC(=O)[C@H](Cc2ccc(O)cc2)NC(=O)[C@H](Cc2ccccc2)NC(=O)CSC[C@@H](C(=O)N[C@@H](C)C(N)=O)NC(=O)[C@H]([C@@H](C)O)NC(=O)[C@H](C(C)C)NC1=O` [Compound 1141] ({CH2CO}-FYDWV[Bip]E[NMeA][dL]RLVTCA-NH2; thioether N-14) as the compound, how does the IC50 read?
Its IC50 is 0.04 µM.

For `CC(C)C[C@@H]1NC(=O)[C@H](Cc2c[nH]c3ccccc23)NC(=O)[C@H](CC(=O)O)NC(=O)[C@H](Cc2ccc(OCC(=O)O)cc2)NC(=O)[C@H](Cc2ccccc2)NC(=O)CSC[C@@H](C(=O)N[C@@H](CC(N)=O)C(N)=O)NC(=O)[C@H](CO)NC(=O)[C@H](C(C)C)NC(=O)[C@H](CC(C)C)NC(=O)[C@H](CCN)NC(=O)[C@@H](CC(C)C)NC(=O)[C@H](C)N(C)C(=O)[C@H](Cc2cnc[nH]2)NC(=O)[C@H](Cc2ccc(-c3ccccc3)cc2)NC1=O` [Compound 2096] ({CH2CO}-FY(Carboxymethyl)DWL[Bip]H[NMeA][dL][Dab]LVSCN-NH2; thioether N-14), which IC50 is on record?
Its IC50 is 0.04 µM.

How did the IC50 turn out when `CC(C)C[C@@H]1NC(=O)[C@H](Cc2c[nH]c3ccccc23)NC(=O)[C@H](CC(=O)O)NC(=O)[C@H](Cc2ccncc2)NC(=O)[C@H](Cc2ccc(OCC(=O)O)cc2)NC(=O)CSC[C@@H](C(=O)N[C@H](CCN)C(N)=O)NC(=O)[C@H]([C@@H](C)O)NC(=O)[C@H](C(C)C)NC(=O)[C@H](CC2CCCCC2)NC(=O)[C@H](CCN)NC(=O)[C@@H](CC(C)C)NC(=O)[C@H](C)N(C)C(=O)[C@H](C(C)C)NC(=O)[C@H](Cc2ccc(-c3ccccc3)cc2)NC1=O` [Compound 1904] ({CH2CO}-Y(Carboxymethyl)[4Pal]DWL[Bip]V[NMeA][dL][Dab][Cha]VTC[dDab]-NH2; thioether N-14) was run?
The IC50 was 0.01 µM.

Which IC50 does the source give for `CC(C)C[C@@H]1NC(=O)[C@H](CCCCN)NC(=O)[C@@H](CC(C)C)NC(=O)[C@H](C)N(C)C(=O)[C@H](CCC(=O)O)NC(=O)[C@H](Cc2ccc(-c3ccccc3)cc2)NC(=O)[C@H](C(C)C)NC(=O)[C@H](Cc2c[nH]c3ccccc23)NC(=O)[C@H](CC(=O)O)NC(=O)[C@H](Cc2ccc(O)cc2)NC(=O)[C@H](Cc2ccncc2)NC(=O)CSC[C@@H](C(=O)N[C@@H](C)C(N)=O)NC(=O)[C@H](C(C)O)NC(=O)[C@H](C(C)C)NC1=O` (stereo partly drawn) [Compound 2057] ({CH2CO}-[4Pal]YDWV[Bip]E[NMeA][dL]KLV[Thr(3ξ)]CA-NH2; thioether N-14) here?
The IC50 was 0.04 µM.

`CCC(C)[C@@H]1NC(=O)[C@H](Cc2ccc(-c3ccccc3)cc2)NC(=O)[C@H](CC(C)C)NC(=O)[C@H](Cc2c[nH]c3ccccc23)NC(=O)[C@H](CC(=O)O)NC(=O)[C@H](Cc2ccc(C(=O)O)cc2)NC(=O)[C@H](Cc2ccc(OCC(=O)O)cc2)NC(=O)CSC[C@@H](C(=O)N[C@@H](CO)C(N)=O)NC(=O)[C@H](CO)NC(=O)[C@H](C(C)C)NC(=O)[C@H](CC2CCCCC2)NC(=O)[C@H](CCN)NC(=O)[C@@H](CC(C)C)NC(=O)[C@H](C)N(C)C1=O` (stereo partly drawn) [Compound 1929] ({CH2CO}-Y(Carboxymethyl)[Phe(4-COOH)]DWL[Bip][Ile(3ξ)][NMeA][dL][Dab][Cha]VSCS-NH2; thioether N-14) was tested. Which IC50 did it give?
The IC50 was 0.02 µM.

For `CCNC(=O)[C@H](CCN)NC(=O)[C@@H]1CSCC(=O)N[C@@H](Cc2ccc(C(N)=O)cc2)C(=O)N[C@@H](Cc2ccc(OCC(=O)O)cc2)C(=O)N[C@@H](CC(=O)O)C(=O)N[C@@H](Cc2cccc(C)c2)C(=O)N[C@@H](Cc2ccc(OCC(=O)O)cc2)C(=O)N[C@@H](Cc2ccc(-c3ccccc3)cc2)C(=O)N[C@@H](Cc2ccc(OCC(=O)O)cc2)C(=O)N(C)[C@@H](C)C(=O)N[C@H](CC(C)C)C(=O)N[C@@H](CCN)C(=O)N[C@@H](CC2CCCCC2)C(=O)N[C@@H](C(C)C)C(=O)N[C@@H]([C@@H](C)O)C(=O)N1` [Compound 1857] ({CH2CO}-[Phe(4-CONH2)]Y(Carboxymethyl)D[Phe(3-Me)]Y(Carboxymethyl)[Bip]Y(Carboxymethyl)[NMeA][dL][Dab][Cha]VTC[Dab]-NHEt; thioether N-14), which IC50 is on record?
The IC50 was 0.01 µM.

For `CC(C)C[C@@H]1NC(=O)[C@H](CCCNC(=N)N)NC(=O)[C@@H](CC(C)C)NC(=O)[C@H](C)N(C)C(=O)[C@H](CCCNC(=N)N)NC(=O)[C@H](Cc2ccc(-c3ccccc3)cc2)NC(=O)[C@H](C(C)C)NC(=O)[C@H](Cc2c[nH]c3ccccc23)NC(=O)[C@H](CC(=O)O)NC(=O)[C@H](Cc2ccc(OCC(=O)O)cc2)NC(=O)[C@H](Cc2cccnc2)NC(=O)CSC[C@@H](C(=O)N[C@@H](C)C(N)=O)NC(=O)[C@H]([C@@H](C)O)NC(=O)[C@H](C(C)C)NC1=O` [Compound 1110] ({CH2CO}-[3Pal]Y(Carboxymethyl)DWV[Bip]R[NMeA][dL]RLVTCA-NH2; thioether N-14), which IC50 is on record?
Its IC50 is 0.04 µM.

For `CC(C)C[C@@H]1NC(=O)[C@H](CC(N)=O)NC(=O)[C@@H](CC(C)C)NC(=O)[C@H](C)N(C)C(=O)[C@H](CCCNC(N)=O)NC(=O)[C@H](Cc2ccc(-c3ccccc3)cc2)NC(=O)[C@H](C(C)C)NC(=O)[C@H](Cc2c[nH]c3ccccc23)NC(=O)[C@H](CC(=O)O)NC(=O)[C@H](Cc2ccc(O)cc2)NC(=O)[C@H](Cc2ccccc2)NC(=O)CSC[C@@H](C(=O)N[C@@H](C)C(N)=O)NC(=O)[C@H](C(C)O)NC(=O)[C@H](C(C)C)NC1=O` (stereo partly drawn) [Compound 2031] ({CH2CO}-FYDWV[Bip][Cit][NMeA][dL]NLV[Thr(3ξ)]CA-NH2; thioether N-14), which IC50 is on record?
The IC50 was 0.07 µM.

`CCC(C)[C@@H]1NC(=O)[C@H](Cc2ccc(-c3ccccc3)cc2)NC(=O)[C@H](C(C)C)NC(=O)[C@H](Cc2c[nH]c3ccccc23)NC(=O)[C@H](CC(=O)O)NC(=O)[C@H](Cc2ccc(O)cc2)NC(=O)[C@H](Cc2ccc(CN)cc2)NC(=O)CSC[C@@H](C(=O)N[C@@H](C)C(N)=O)NC(=O)[C@H](C(C)O)NC(=O)[C@H](C(C)C)NC(=O)[C@H](CC2CCCCC2)NC(=O)[C@H](CCN)NC(=O)[C@@H](CC(C)C)NC(=O)[C@H](C)N(C)C1=O` (stereo partly drawn) [Compound 2062] ({CH2CO}-[Phe(4-CH2NH2)]YDWV[Bip][Ile(3ξ)][NMeA][dL][Dab][Cha]V[Thr(3ξ)]CA-NH2; thioether N-14) was tested. Which IC50 did it give?
The IC50 was 0.02 µM.

`CC(C)C[C@@H]1NC(=O)[C@H](CCN)NC(=O)[C@@H](CC(C)C)NC(=O)[C@H](C)N(C)C(=O)[C@H](CCCNC(=N)N)NC(=O)[C@H](Cc2ccc(-c3ccccc3)cc2)NC(=O)[C@H](C(C)C)NC(=O)[C@H](Cc2cccc(C#N)c2)NC(=O)[C@H](CC(=O)O)NC(=O)[C@H](Cc2ccc(C(=O)O)cc2)NC(=O)[C@H](CN)NC(=O)CSC[C@@H](C(=O)N[C@@H](C)C(N)=O)NC(=O)[C@H]([C@@H](C)O)NC(=O)[C@H](C(C)C)NC1=O` [Compound 1461] ({CH2CO}-[Dap][Phe(4-COOH)]D[Phe(3-CN)]V[Bip]R[NMeA][dL][Dab]LVTCA-NH2; thioether N-14) was tested. Which IC50 did it give?
The IC50 was 0.23 µM.

For `Cc1cccc2c(C[C@@H]3NC(=O)[C@H](CC(=O)O)NC(=O)[C@H](Cc4ccc(O)cc4)NC(=O)[C@H](Cc4ccccc4)NC(=O)CSC[C@@H](C(=O)N[C@@H](C)C(N)=O)NC(=O)[C@H]([C@@H](C)O)NC(=O)[C@H](C(C)C)NC(=O)[C@H](CC(C)C)NC(=O)[C@H](CCCNC(=N)N)NC(=O)[C@@H](CC(C)C)NC(=O)[C@H](C)N(C)C(=O)[C@H](CCCNC(=N)N)NC(=O)[C@H](Cc4ccc(-c5ccccc5)cc4)NC(=O)[C@H](C(C)C)NC3=O)c[nH]c12` [Compound 1097] ({CH2CO}-FYD[Trp(7-Me)]V[Bip]R[NMeA][dL]RLVTCA-NH2; thioether N-14), which IC50 is on record?
Its IC50 is 0.21 µM.

With `CC(C)C[C@@H]1NC(=O)[C@H](Cc2c[nH]c3ccccc23)NC(=O)[C@H](CC(=O)O)NC(=O)[C@H](Cc2ccc(O)cc2)NC(=O)[C@H](Cc2ccccc2)NC(=O)CSC[C@@H](C(=O)NCC(N)=O)NC(=O)[C@H](CO)NC(=O)[C@H](C(C)C)NC(=O)[C@H](CC(C)C)NC(=O)[C@H](CC(N)=O)NC(=O)[C@H](CCO)NC(=O)[C@H](C)N(C)C(=O)[C@H](C(C)C)NC(=O)[C@H](Cc2ccc(-c3ccccc3)cc2)NC1=O` [Compound 1814] ({CH2CO}-FYDWL[Bip]V[NMeA][hSer]NLVSCG-NH2; thioether N-14) as the compound, how does the IC50 read?
Its IC50 is 0.3 µM.

For `CC[C@H](C)[C@@H]1NC(=O)[C@H](Cc2ccc(-c3ccccc3)cc2)NC(=O)[C@H](C(C)C)NC(=O)[C@H](Cc2c[nH]c3ccccc23)NC(=O)[C@H](CC(=O)O)NC(=O)[C@H](Cc2ccc(O)cc2)NC(=O)[C@H](Cc2ccncc2)NC(=O)CSC[C@@H](C(=O)N[C@@H](C)C(N)=O)NC(=O)[C@H]([C@@H](C)O)NC(=O)[C@H](C(C)C)NC(=O)[C@H](CC(C)C)NC(=O)[C@H](CCN)NC(=O)[C@@H](CC(C)C)NC(=O)[C@H](C)N(C)C1=O` [Compound 1400] ({CH2CO}-[4Pal]YDWV[Bip]I[NMeA][dL][Dab]LVTCA-NH2; thioether N-14), which IC50 is on record?
The IC50 was 0.02 µM.

Which IC50 does the source give for `CCC(C)[C@@H]1NC(=O)[C@H](Cc2ccc(-c3ccccc3)cc2)NC(=O)[C@H](CC(C)C)NC(=O)[C@H](Cc2c[nH]c3ccccc23)NC(=O)[C@H](CC(=O)O)NC(=O)[C@H](Cc2ccc(C(=O)O)cc2)NC(=O)[C@H](Cc2ccc(OCC(=O)O)cc2)NC(=O)CSC[C@@H](C(=O)N[C@@H](C)C(N)=O)NC(=O)[C@H](CO)NC(=O)[C@H](C(C)C)NC(=O)[C@H](CC2CCCCC2)NC(=O)[C@H](CNC)NC(=O)[C@@H](CC(C)C)NC(=O)[C@H](C)N(C)C1=O` (stereo partly drawn) [Compound 2068] ({CH2CO}-Y(Carboxymethyl)[Phe(4-COOH)]DWL[Bip][Ile(3ξ)][NMeA][dL][Dap(Me)][Cha]VSCA-NH2; thioether N-14) here?
The IC50 was 0.03 µM.
